The target in the assay is Human V1b receptor (Homo sapiens (Human), UniProt P47901). Nature of the assay: Binding Test for V1b Receptor ([3H]AVP, crude membrane preparation of 293FT cells). Particulars: inhibition of [3H]AVP binding (0.4 to 1 nmol/L), room temperature, 60 minutes. As to the method:
Binding Test for V1b Receptor
Human V1b receptor was transiently expressed in 293FT cells (Invitrogen). The cells were collected and then homogenated in a 15 mmol/L tris-hydrochloric acid buffer (pH 7.4 and containing 2 mmol/L magnesium chloride, 0.3 mmol/L ethylenediaminetetracetic acid, and 1 mmol/L glycol ether diaminetetraacetic acid). The resulting homogenate was centrifuged at 50,000×g at 4° C. for 20 minutes. The precipitate was resuspended in a 75 mmol/L tris-hydrochloric acid buffer (pH 7.4 and containing 12.5 mmol/L magnesium chloride, 0.3 mmol/L ethylenediaminetetracetic acid, 1 mmol/L glycol ether diaminetetraacetic acid, and 250 mmol/L sucrose) to give a crude membrane preparation, which was stored at −80° C. until the binding test was initiated. In the binding test, the crude membrane preparation was diluted with a 50 mmol/L tris-hydrochloric acid buffer (pH 7.4 and containing 10 mmol/L magnesium chloride and 0.1% bovine serum albumin) and mixed with each test compound and [^3H]AVP (final concentration: 0.4 to 1 nmol/L), followed by incubation at room temperature for 60 minutes. The test compound was serially diluted with DMSO so that it would have final concentrations of 0.01 nmol/L to 1 μmol/L at the time of mixing. After the incubation, the mixture was suction filtered through a GF/C filter that was preliminarily impregnated with 0.3% polyethyleneimine. The GF/C filter was dried and after adding a scintillator, the residual radioactivity on the filter was measured using TopCount (PerkinElmer Inc.). The radioactivity in the presence of unlabeled AVP at […] was defined as 0%, and the radioactivity in the absence of unlabeled AVP was defined as 100%. A dose-response curve was plotted from radio activities in the presence of a test compound at various concentrations, and the 50% inhibitory concentration (IC50 value) of the test compound was calculated.

Our source for the IC50 values is patent US9522914B2, “Azole derivative” (TAISHO PHARMACEUTICAL CO., LTD, priority 2011, dated 2016).

Human V1b receptor, sequence (P47901 whole entry): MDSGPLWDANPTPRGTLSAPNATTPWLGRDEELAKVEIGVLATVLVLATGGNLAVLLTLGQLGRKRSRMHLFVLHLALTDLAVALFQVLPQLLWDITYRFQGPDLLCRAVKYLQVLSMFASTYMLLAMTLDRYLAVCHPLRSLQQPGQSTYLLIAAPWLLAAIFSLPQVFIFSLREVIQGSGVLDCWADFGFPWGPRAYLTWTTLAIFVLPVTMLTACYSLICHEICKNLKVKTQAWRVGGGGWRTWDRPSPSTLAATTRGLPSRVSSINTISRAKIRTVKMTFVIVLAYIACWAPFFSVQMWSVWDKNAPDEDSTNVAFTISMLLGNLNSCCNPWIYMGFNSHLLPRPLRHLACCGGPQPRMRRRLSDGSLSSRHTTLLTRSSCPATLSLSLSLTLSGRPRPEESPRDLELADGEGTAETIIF

With `CC(C)NC(=O)Cc1nn(-c2ccc(CC(C)N3C4CCC3COC4)cc2)c(=O)n1-c1ccc(F)c(Cl)c1` [Example D-36, 2-[4-(3-chloro-4-fluorophenyl)-1-{4-[2-(3-oxa-8-azabicyclo[3.2.1]oct-8-yl)propyl]phenyl}-5-oxo-4,5-dihydro-1H-1,2,4-triazol-3-yl]-N-(propan-2-yl)acetamide], the IC50 amounted to 0.61 nM.

The compound `CC(C)NC(=O)Cc1nn(-c2ccc(CCN3CCCCC3)cc2)c(=O)n1-c1ccc(F)c(Cl)c1` [Example D-44, 2-[4-(3-chloro-4-fluorophenyl)-5-oxo-1-{4-[2-(piperidin-1-yl)ethyl]phenyl}-4,5-dihydro-1H-1,2,4-triazol-3-yl]-N-(propan-2-yl)acetamide] gave an IC50 of 16 nM. This IC50 lies about 26-fold higher than the previous one.

`CC(C)NC(=O)Cc1nn(-c2ccc(CCN3C(C)COCC3C)cc2)c(=O)n1-c1cccc(Cl)c1` [Example D-60, 2-[4-(3-chlorophenyl)-1-{4-[2-(3,5-dimethylmorpholin-4-yl)ethyl]phenyl}-5-oxo-4,5-dihydro-1H-1,2,4-triazol-3-yl]-N-(propan-2-yl)acetamide] yielded an IC50 of 100 to 1000 nM.

`COc1cc(-c2nc(-c3ccc(CCN4CC(C#N)C4)cc3)cn2CC(=O)NC(C)C)ccc1F` [Example A-16, 2-[4-{4-[2-(3-cyanoazetidin-1-yl)ethyl]phenyl}-2-(4-fluoro-3-methoxyphenyl)-1H-imidazol-1-yl]-N-(propan-2-yl)acetamide] yielded an IC50 of 100 to 1000 nM.

Regarding `CC(C)NC(=O)CC1=C(c2cccc(Cl)c2)C(=O)N(c2ccc(CCN3CCOCC3)cc2)C1=O` [Example C-18, 2-[4-(3-chlorophenyl)-1-{4-[2-(morpholin-4-yl)ethyl]phenyl}-2,5-dioxo-2,5-dihydro-1H-pyrrol-3-yl]-N-(propan-2-yl)acetamide], the IC50 stood at 9 nM.

Consider `COc1cccc(-c2nc(-c3ccc(CCN4C5CCC4COC5)cc3)nn2CC(=O)NC(C)C)c1` [Example B-17, 2-[5-(3-methoxyphenyl)-3-{4-[2-(3-oxa-8-azabicyclo[3.2.1]oct-8-yl)ethyl]phenyl}-1H-1,2,4-triazol-1-yl]-N-(propan-2-yl)acetamide], for which the IC50 was found to be 1.4 nM. This IC50 is about 6.4-fold lower than that of the compound before.

The compound `CC(C)(C)NC(=O)Cn1nc(-c2ccc(CCN3CCOCC3)cn2)nc1-c1cccc(Cl)c1` [Example B-11, N-tert-butyl-2-[5-(3-chlorophenyl)-3-{5-[2-(morpholin-4-yl)ethyl]pyridin-2-yl}-1H-1,2,4-triazol-1-yl]acetamide] registered an IC50 of 5.1 nM.

Compound `CC(C)NC(=O)Cc1nn(-c2ccc(CCN3C4CCC3COC4)cc2F)c(=O)n1-c1cccc(Cl)c1` [Example D-24, 2-[4-(3-chlorophenyl)-1-{2-fluoro-4-[2-(3-oxa-8-azabicyclo[3.2.1]oct-8-yl)ethyl]phenyl}-5-oxo-4,5-dihydro-1H-1,2,4-triazol-3-yl]-N-(propan-2-yl)acetamide] showed an IC50 of 10 to 100 nM.

`CC(C)NC(=O)Cn1cc(C(=O)N2CCC(CCN3CCOCC3)C2)nc1-c1cccc(Cl)c1` (centres unmarked) [Example A-49, 2-[2-(3-chlorophenyl)-4-({3-[2-(morpholin-4-yl)ethyl]pyrrolidin-1-yl}carbonyl)-1H-imidazol-1-yl]-N-(propan-2-yl)acetamide] had an IC50 of 100 to 1000 nM.

Take `COc1cc(-c2nc(-c3ccc(CCN4C5CCC4COC5)cc3)cn2CC(=O)NC(C)C)ccc1F` [Example A-22, 2-[2-(4-fluoro-3-methoxyphenyl)-4-{4-[2-(3-oxa-8-azabicyclo[3.2.1]oct-8-yl)ethyl]phenyl}-1H-imidazol-1-yl]-N-(propan-2-yl)acetamide]: the IC50 turned out to be 2.6 nM.

Turning to `COc1cccc(-c2nc(-c3ccc(CCN4CCOCC4)cc3F)nn2CC(=O)NC(C)C)c1` [Example B-18, 2-[3-{2-fluoro-4-[2-(morpholin-4-yl)ethyl]phenyl}-5-(3-methoxyphenyl)-1H-1,2,4-triazol-1-yl]-N-(propan-2-yl)acetamide], the half-maximal inhibitory concentration (IC50) turned out to be 7.2 nM. Against the preceding compound, the IC50 is about 2.8-fold higher.
